For series [1], the system named is Phaeosphaeria nodorum (Septoria nodorum). The experiment in a line: Phaeosphaeria nodorum (Septoria nodorum) / wheat / leaf disc preventative (glume blotch). The series is classed as in vivo. The settings on record: Parastagonospora nodorum, foliar, wheat leaf segments cv. Kanzler, inoculated 2 days after application, assessed 5-7 days after application, read-out: inhibit fungal infestation (percent disease control compared to untreated). How it is done: (§1) Leaf disks of various plant species (diameter 14 mm) are cut from plants grown in the greenhouse. The cut leaf disks are placed in multiwell plates (24-well format) onto water agar. Immediately after cutting the leaf disks are sprayed with a test solution.
(§2) Compounds to be tested are prepared as DMSO solutions (max. 10 mg/ml). Just before spraying the solutions are diluted to the appropriate concentrations with 0.025% Tween20. After drying, the leaf disks are inoculated with a spore suspension of the appropriate pathogenic fungus.
(§3) After an incubation time of 3-7 days after inoculation at defined conditions (temp, rH, light, etc.) according to the respective test system, the activity of the test compound is assessed as antifungal activity.
Wheat leaf segments cv. Kanzler are placed on agar in a multiwell plate (24-well format) and sprayed with the formulated test compound diluted in water. The leaf disks are inoculated with a spore suspension of the fungus 2 days after application. The inoculated test leaf disks are incubated at 20° C. and 75% rh under a light regime of 12 h light/12 h darkness in a climate cabinet and the activity of a compound is assessed as percent disease control compared to untreated when an appropriate level of disease damage appears in untreated check leaf disks (5-7 days after application).

Another series has as its system Pythium ultimum. Kind of series: Pythium ultimum / liquid culture (seedling damping off). The series is classed as cell-based. Particulars: Globisporangium ultimum, liquid culture in PDB, 24° C., 2-3 days after application, read-out: inhibit fungal infestation (inhibition of growth determined photometrically). How it is done: Mycelia fragments or conidia suspensions of a fungus, prepared either freshly from liquid cultures of the fungus or from cryogenic storage, are directly mixed into nutrient broth. DMSO solutions of the test compound (max. 10 mg/ml) is diluted with 0.025% Tween20 by factor 50 and 10 μl of this solution is pipetted into a microtiter plate (96-well format) and the nutrient broth containing the fungal spores/mycelia fragments is then added to give an end concentration of the tested compound. The test plates are incubated at 24° C. and 96% rH in the dark. The inhibition of fungal growth is determined photometrically after 2-6 days and antifungal activity is calculated.
Mycelia fragments and oospores of a newly grown liquid culture of the fungus are directly mixed into nutrient broth (PDB potato dextrose broth). After placing a (DMSO) solution of test compound into a microtiter plate (96-well format), the nutrient broth containing the fungal mycelia/spore mixture is added. The test plates are incubated at 24° C. and the inhibition of growth is determined photometrically 2-3 days after application.

Another series concerns Plasmopara viticola. The experiment in a line: Plasmopara viticola / grape / leaf disc preventative. The class given is in vivo. The settings on record: foliar, grape vine leaf disks, inoculated 1 day after application, assessed 6-8 days after application, read-out: inhibit fungal infestation (percent disease control compared to untreated). How it is done: as §1, §2, §3
Grape vine leaf disks are placed on water agar in multiwell plates (24-well format) and sprayed with the formulated test compound diluted in water. The leaf disks are inoculated with a spore suspension of the fungus 1 day after application. The inoculated leaf disks are incubated at 19° C. and 80% rh under a light regime of 12 h light/12 h darkness in a climate cabinet and the activity of a compound is assessed as percent disease control compared to untreated when an appropriate level of disease damage appears in untreated check leaf disks (6-8 days after application).

Series [2] relates to Blumeria graminis f. sp. tritici (Erysiphe graminis f. sp. tritici). Kind of series: Blumeria graminis f. sp. tritici / wheat / leaf disc preventative (powdery mildew on wheat). The series is classed as in vivo. Particulars: foliar, wheat leaf segments cv. Kanzler, inoculated 1 day after application, assessed 6-8 days after application, read-out: inhibit fungal infestation (percent disease control compared to untreated). How it is done: as §1, §2, §3
Wheat leaf segments cv. Kanzler are placed on agar in a multiwell plate (24-well format) and sprayed with the formulated test compound diluted in water. The leaf disks are inoculated by shaking powdery mildew infected plants above the test plates 1 day after application. The inoculated leaf disks are incubated at 20° C. and 60% rh under a light regime of 24 h darkness followed by 12 h light/12 h darkness in a climate chamber and the activity of a compound is assessed as percent disease control compared to untreated when an appropriate level of disease damage appears on untreated check leaf segments (6-8 days after application).

The next series has as its system Phytophthora infestans. Kind of series: whole plant or invertebrate. The class given is in vivo. Particulars: in Solanum lycopersicum, foliar, read-out: inhibit fungal infestation (percent disease control compared to untreated).

SMILES strings stand for the structures. Read-outs that look alike come from different tables or passages of the source.

5 compounds from patent US20130096156A1 (priority 2010, published 2013) can be followed below.

Usually melting point stands for the temperature, or range, at which the solid turns liquid.

For the compound `C=Cc1cnc2c(F)cc(OC(SC)C(=O)NC(C)(C)/C=N/OC)cc2c1` (stereo not drawn) [Compound 37], the melting point was 105 to 107 °C. Also, the inhibition at 200 ppm in series [1] (in Triticum aestivum) is at least 80%. Besides, the inhibition at 200 ppm in the series with Pythium ultimum is at least 80%. Besides, the inhibition at 200 ppm in the series on Plasmopara viticola was at least 80%. Further, the inhibition at 200 ppm in series [2] (in Triticum aestivum) is at least 80%. Besides, the inhibition at 200 ppm in the series on Phytophthora infestans is at least 80%.
In the case of `C=Cc1cnc2ccc(OC(SC)C(=O)NC(C)(C)/C=N/OC)cc2c1` (stereo not drawn) [Compound 34, N-(2-Methoxyimino-1,1-dimethyl-ethyl)-2-methylsulfanyl-2-(3-vinyl-quinolin-6-yloxy)-acetamide], the melting point lay within 114 to 116 °C. In series [1], the inhibition at 200 ppm was at least 80%. For the same compound, the inhibition at 200 ppm in the series on Pythium ultimum is at least 80%. Besides, in the series on Plasmopara viticola, the inhibition at 200 ppm is at least 80%. Also, the inhibition at 200 ppm in series [2] was at least 80%. Further, the inhibition at 200 ppm in the series with Phytophthora infestans is at least 80%.
In turn, `CCc1cnc2c(C)cc(OC(SC)C(=O)NC(C)(C)/C=N/OC)cc2c1` (stereo not drawn) [Compound 16, 2-(3-Ethyl-8-methyl-quinolin-6-yloxy)-N-(2-methoxyimino-1,1-dimethyl-ethyl)-2-methylsulfanyl-acetamide] yielded a melting point of 105 to 106 °C. Also, in series [1], the inhibition at 200 ppm was at least 80%. Further, the inhibition at 200 ppm in the series with Pythium ultimum is at least 80%. Moreover, the inhibition at 200 ppm in the series on Plasmopara viticola was at least 80%. In addition, in series [2], the inhibition at 200 ppm is at least 80%. For the same compound, the inhibition at 200 ppm with Phytophthora infestans was at least 80%.
Compound `CCc1cnc2c(F)cc(OC(SC)C(=O)NC(C)(C)/C=N/OC)cc2c1` (stereo not drawn) [Compound 14, 2-(3-Ethyl-8-fluoro-quinolin-6-yloxy)-N-(2-methoxyimino-1,1-dimethyl-ethyl)-2-methylsulfanyl-acetamide] displayed a melting point of 101 to 103 °C. Further, in series [1], the inhibition at 200 ppm was at least 80%. For the same compound, in the series with Pythium ultimum, the inhibition at 200 ppm is at least 80%. In addition, in the series with Plasmopara viticola, the inhibition at 200 ppm was at least 80%. The inhibition at 200 ppm in series [2] was at least 80%. Also, in the series on Phytophthora infestans, the inhibition at 200 ppm is at least 80%.
`C#CC(C)(C)NC(=O)C(Oc1cc(C)c2ncc(C=C)cc2c1)SC` (stereo not drawn) [Compound 36, N-(1,1-Dimethyl-prop-2-ynyl)-2-methylsulfanyl-2-(8-methyl-3-vinyl-quinolin-6-yloxy)-acetamide] came in with a melting point of 115 to 117 °C. In series [1], the inhibition at 200 ppm was at least 80%. For the same compound, in the series on Pythium ultimum, the inhibition at 200 ppm is at least 80%. Moreover, in the series on Plasmopara viticola, the inhibition at 200 ppm is at least 80%. For the same compound, in series [2], the inhibition at 200 ppm is at least 80%. In addition, the inhibition at 200 ppm in the series with Phytophthora infestans was at least 80%.
